Reference: US20250332300A1 (priority 2024, published 2025)
Where two headings read alike, the source gives them in different places. Starred links: 1 amine or outer side, 2 acyl side, 3 side chain; linkers in the order of their positions; H or OH if unused. Positions of bridges follow the written chain, without caps; N, C: chain ends. Non-standard residues stand in square brackets, D forms with d. Residues, ends and D or L forms follow the SMILES beside them. Trp(5-OH) = N[C@@H](Cc1c[nH]c2ccc(O)cc12)C(=O)O; NMePhe(4-F) = CN[C@@H](Cc1ccc(F)cc1)C(=O)O; isoSer(2S) = O=C([C@@H](O)CN[*:1])[*:2]; NMehPhe = CN[C@@H](CCc1ccccc1)C(=O)O; NMeAhp(2) = CCCCC[C@H](NC)C(=O)O; NMeE = CN[C@@H](CCC(=O)O)C(=O)O; Aad = N[C@@H](CCCC(=O)O)C(=O)O; Gly(cPr) = N[C@H](C(=O)O)C1CC1; NMeK = CN[C@@H](CCCCN)C(=O)O; NMeDap = CN[C@@H](CN)C(=O)O; NMeC = CN[C@@H](CS)C(=O)O; NMeS = CN[C@@H](CO)C(=O)O; Dap = NC[C@H](N)C(=O)O; X5 = O=C(C[*:2])[*:1]

Experiments:
Type in all cases: binding
[1] = target: T1, mouse HER2 (23-653) (Mus musculus, UniProt P70424); experiment: Surface plasmon resonance (SPR) for assessment of peptide affinity, mouse HER2; parameters: mouse HER2 (23-653) using a Cy5 labeled peptide as a probe; made in house; conditions: SPR, mouse HER2 extracellular domain, 25° C., 1:1 binding model; read-out: moHER2-SPR-ONC KD
Excerpt: Each protein was immobilized either onto a SA sensorchip (Cytiva, BR-1005-31) or CM5 sensorchip (Cytiva, BR-1005-30) to a density of 800-2000 RU.

[2] = target: T2, human HER2 (23-652) (Homo sapiens, UniProt P04626); experiment: TR-FRET competition assay for peptide potency, human HER2; parameters: towards human HER2 (23-652) and mouse HER2 (23-653); made in house; host or cells: mammalian cells
Description: Both proteins containing a His-, Avi-tag and biotin in Nterminus, were expressed in mammalian cells and produced in house. […] Standard assay conditions consist of 20 uL total volume in white 384-well plates (Greiner), in 10 mM HEPES buffer containing 150 mM NaCl, 3 mM EDTA, 0.05% Tween20 and 1% final DMSO. […] The ratiometric FRET assay readout is calculated from the ratio of the raw data of the two distinct fluorescence signals measured in time resolved mode (fluorescence 665 nm/fluorescence 620 nm). IC50 values were calculated with the standard Novartis in-house assay data analysis software (Helios software application, Novartis Institutes for BioMedical Research, unpublished) using the methods described in Comput. Methods. Programs. Biomed. 2006, 82, 31-37 (regression algorithms for nonlinear dose-response curve fitting).

[3] = target: T1, mouse HER2 (23-653); experiment: TR-FRET competition assay for peptide potency, mouse HER2; parameters: mouse HER2 (23-653) using a Cy5 labeled peptide as a probe; made in house; host or cells: mammalian cells; conditions: TR-FRET competition with Cy5 labeled peptide probe, 0.1 nM mouse HER2, 24 h incubation; read-out: moHER2 TR-FRET IC50
[4] = target: T2, human HER2 (23-652); experiment: Surface plasmon resonance (SPR) for assessment of peptide affinity, human HER2; parameters: towards human HER2 (23-652) and mouse HER2 (23-653); made in house; conditions: SPR, human HER2 extracellular domain, 25° C., 1:1 binding model; read-out: huHER2-SPR-ONC KD
Outline: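 Binding kinetics fitted from sensorgrams with 280 s peptide association then 3000 s dissociation (30 uL/min), using HER2 (23-652) either directly immobilized (SA/CM5) or anti-Fc-captured; 3 M magnesium chloride used for regeneration.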

[5] = TR-FRET competition with Cy5 labeled peptide probe, 0.1 nM human HER2, 24 h incubation, read-out: huHER2 TR-FRET IC50

Row | Structure (SMILES) | Kd [1] [nM] | IC50 ([2]; read-out: huHER2 TR-FRET IC50) [nM] | IC50 [3] [nM] | Kd [4] [nM] | IC50 [2, 5] [nM] | IC50 ([2]; value in parentheses (**): recalculated after further repetition, read-out: huHER2 TR-FRET IC50, recalculated value achieved after further repetition) [nM]
1 | CC(=O)NCCCC[C@H]1C(=O)N[C@@H](Cc2c[nH]c3ccc(O)cc23)C(=O)N[C@@H](Cc2c[nH]c3ccccc23)C(=O)N[C@@H](C2CC2)C(=O)N(C)[C@H](C(=O)N(C)[C@@H](Cc2ccc(F)cc2)C(N)=O)CCC(=O)NC[C@H](O)C(=O)N[C@@H](Cc2ccc(O)cc2)C(=O)N[C@@H](CO)C(=O)N(C)[C@@H](CCc2ccccc2)C(=O)N1C [Example A23, (3S,6S,9S,12S,15S,18S,21S,24S,30S)-6-((1H-indol-3-yl)methyl)-12-(4-acetamidobutyl)-N-((S)-1-amino-3-(4-fluorophenyl)-1-oxopropan-2-yl)-3-cyclopropyl-24-hydroxy-9-((5-hydroxy-1H-indol-3-yl)methyl)-21-(4-hydroxybenzyl)-18-(hydroxymethyl)-N,1,13,16-tetramethyl-2,5,8,11,14,17,20,23,27-nonaoxo-15-phenethyl-1,4,7,10,13,16,19,22,26-nonaazacyclotriacontane-30-carboxamide] ([isoSer(2S)]YS[NMehPhe][NMeK](Ac)[Trp(5-OH)]W[Gly(cPr)][NMeE][NMePhe(4-F)]-NH2; lactam N-9) | 2.7 | 3 | 5.5 | – | – | –
2 | CC(=O)N[C@H]1CCC(=O)NC[C@@H](C(=O)N(C)[C@@H](Cc2ccc(F)cc2)C(=O)N2CCC[C@H]2C(N)=O)N(C)C(=O)[C@H](C2CC2)NC(=O)[C@H](Cc2c[nH]c3ccccc23)NC(=O)[C@H](Cc2c[nH]c3ccc(O)cc23)NC(=O)[C@H](CO)N(C)C(=O)[C@H](CCc2ccccc2)N(C)C(=O)[C@H](CO)NC(=O)[C@H](Cc2ccc(O)cc2)NC1=O [Example A30, (3S,6S,9S,12S,15S,18S,21S,24S,27S)-9-((1H-indol-3-yl)methyl)-27-acetamido-N-((S)-1-((S)-2-carbamoylpyrrolidin-1-yl)-3-(4-fluorophenyl)-1-oxopropan-2-yl)-6-cyclopropyl-12-((5-hydroxy-1H-indol-3-yl)methyl)-24-(4-hydroxybenzyl)-15,21-bis(hydroxymethyl)-N,4,16,19-tetramethyl-5,8,11,14,17,20,23,26,30-nonaoxo-18-phenethyl-1,4,7,10,13,16,19,22,25-nonaazacyclotriacontane-3-carboxamide] | 30 | – | 67 | 31 | – | –
3 | CCCCC[C@H]1C(=O)N(C)[C@@H](CCCCNC(C)=O)C(=O)N[C@@H](Cc2c[nH]c3ccc(O)cc23)C(=O)N[C@@H](Cc2c[nH]c3ccccc23)C(=O)N[C@@H](C2CC2)C(=O)N(C)[C@H](C(=O)N(C)[C@@H](Cc2ccc(F)cc2)C(N)=O)CNC(=O)CCC[C@H](NC(C)=O)C(=O)N[C@@H](Cc2ccc(O)cc2)C(=O)N[C@@H](CO)C(=O)N1C [Example A14, (3S,6S,9S,12S,15S,18S,21S,24S,27S)-9-((1H-indol-3-yl)methyl)-27-acetamido-15-(4-acetamidobutyl)-N-((S)-1-amino-3-(4-fluorophenyl)-1-oxopropan-2-yl)-6-cyclopropyl-12-((5-hydroxy-1H-indol-3-yl)methyl)-24-(4-hydroxybenzyl)-21-(hydroxymethyl)-N,4,16,19-tetramethyl-5,8,11,14,17,20,23,26,31-nonaoxo-18-pentyl-1,4,7,10,13,16,19,22,25-nonaazacyclohentriacontane-3-carboxamide] (Ac-[Aad]YS[NMeAhp(2)][NMeK](Ac)[Trp(5-OH)]W[Gly(cPr)][NMeDap][NMePhe(4-F)]-NH2; lactam 1-9) | 1.2 | – | 3.7 | 1.3 | – | –
4 | CC(=O)N[C@H]1CNC(=O)CSC[C@@H](C(=O)N(C)[C@@H](Cc2ccc(F)cc2)C(N)=O)N(C)C(=O)[C@H](C2CC2)NC(=O)[C@H](Cc2c[nH]c3ccccc23)NC(=O)[C@H](Cc2c[nH]c3ccc(O)cc23)NC(=O)[C@H](CO)N(C)C(=O)[C@H](CCc2ccccc2)N(C)C(=O)[C@H](CO)NC(=O)[C@H](Cc2ccc(O)cc2)NC1=O [Example A50, (3R,6S,9S,12S,15S,18S,21S,24S,27S)-9-((1H-indol-3-yl)methyl)-27-acetamido-N—((S)-1-amino-3-(4-fluorophenyl)-1-oxopropan-2-yl)-6-cyclopropyl-12-((5-hydroxy-1H-indol-3-yl)methyl)-24-(4-hydroxybenzyl)-15,21-bis(hydroxymethyl)-N,4,16,19-tetramethyl-5,8,11,14,17,20,23,26,30-nonaoxo-18-phenethyl-1-thia-4,7,10,13,16,19,22,25,29-nonaazacyclohentriacontane-3-carboxamide] (Ac-[Dap]YS[NMehPhe][NMeS][Trp(5-OH)]W[Gly(cPr)][NMeC][NMePhe(4-F)]-NH2; linker 1-9 via X5) | 122 | – | 430 | 117 | – | –
5 | CC(=O)N[C@H]1CCCC(=O)NC[C@@H](C(=O)N(C)[C@@H](Cc2ccc(F)cc2)C(=O)N2CCC[C@H]2C(N)=O)N(C)C(=O)[C@H](C2CC2)NC(=O)[C@H](Cc2c[nH]c3ccccc23)NC(=O)[C@H](Cc2c[nH]c3ccc(O)cc23)NC(=O)[C@H](CO)N(C)C(=O)[C@H](CCc2ccccc2)N(C)C(=O)[C@H](CO)NC(=O)[C@H](Cc2ccc(O)cc2)NC1=O [Example A26, (3S,6S,9S,12S,15S,18S,21S,24S,27S)-9-((1H-indol-3-yl)methyl)-27-acetamido-N-((S)-1-((S)-2-carbamoylpyrrolidin-1-yl)-3-(4-fluorophenyl)-1-oxopropan-2-yl)-6-cyclopropyl-12-((5-hydroxy-1H-indol-3-yl)methyl)-24-(4-hydroxybenzyl)-15,21-bis(hydroxymethyl)-N,4,16,19-tetramethyl-5,8,11,14,17,20,23,26,31-nonaoxo-18-phenethyl-1,4,7,10,13,16,19,22,25-nonaazacyclohentriacontane-3-carboxamide] | 8.4 | – | 13 | 11 | – | –
6 | CC(=O)N[C@H]1CCC(=O)NC[C@@H](C(=O)N(C)[C@@H](Cc2ccc(F)cc2)C(N)=O)N(C)C(=O)[C@H](C2CC2)NC(=O)[C@H](Cc2c[nH]c3ccccc23)NC(=O)[C@H](Cc2c[nH]c3ccc(O)cc23)NC(=O)[C@H](CO)N(C)C(=O)[C@H](CCc2ccccc2)N(C)C(=O)[C@H](CO)NC(=O)[C@H](Cc2ccc(O)cc2)NC1=O [Example A25, (3S,6S,9S,12S,15S,18S,21S,24S,27S)-9-((1H-indol-3-yl)methyl)-27-acetamido-N—((S)-1-amino-3-(4-fluorophenyl)-1-oxopropan-2-yl)-6-cyclopropyl-12-((5-hydroxy-1H-indol-3-yl)methyl)-24-(4-hydroxybenzyl)-15,21-bis(hydroxymethyl)-N,4,16,19-tetramethyl-5,8,11,14,17,20,23,26,30-nonaoxo-18-phenethyl-1,4,7,10,13,16,19,22,25-nonaazacyclotriacontane-3-carboxamide] | 93 | 82 | 162 | – | – | –
7 | COCCOCCOCCOCCOCCOCCOCCOCCOCCOCCOCCOCCC(=O)N[C@H]1CCCC(=O)NC[C@@H](C(=O)N(C)[C@@H](Cc2ccc(F)cc2)C(=O)N[C@@H](CCCCNC(=O)CN2CCN(CC(=O)O)CCN(CC(=O)O)CCN(CC(=O)O)CC2)C(N)=O)N(C)C(=O)[C@H](C2CC2)NC(=O)[C@H](Cc2c[nH]c3ccccc23)NC(=O)[C@H](Cc2c[nH]c3ccc(O)cc23)NC(=O)[C@H](CCCCNC(C)=O)N(C)C(=O)[C@H](CCc2ccccc2)N(C)C(=O)[C@H](CO)NC(=O)[C@H](Cc2ccc(O)cc2)NC1=O [Example C37] | 0.3 | – | 0.4 | – | 0.1 | –
8 | CC(=O)NCCCC[C@H]1C(=O)N[C@@H](Cc2c[nH]c3ccc(O)cc23)C(=O)N[C@@H](Cc2c[nH]c3ccccc23)C(=O)N[C@@H]([C@H](C)O)C(=O)N(C)[C@H](C(=O)N(C)[C@@H](Cc2ccc(F)cc2)C(=O)N[C@@H](CCCCNC(=O)N2CCN(CC(=O)O)CC2)C(=O)N[C@@H](CCCCNC(=O)CN2CCN(CC(=O)O)CCN(CC(=O)O)CCN(CC(=O)O)CC2)C(N)=O)CNC(=O)CC[C@H](NC(C)=O)C(=O)N[C@@H](Cc2ccc(O)cc2)C(=O)N[C@@H](CO)C(=O)N(C)[C@@H](CCc2ccccc2)C(=O)N1C [Example C24] | 9.3 | – | 13 | – | 13 | 11
